# Measured values as given in PubChem BioAssay AID328 (DTP/NCI, 2004).
# Values joined by “and” are separate entries in the source; they are usually repeats but may differ in a detail not shown here. Identical values can stand only once. Inconclusive results and toxic doses are left out.
# System: BDF1 mice, P388 leukemia ip, median survival T/C
# Test: NCI In Vivo Anticancer Drug Screen. Data for tumor model P388 Leukemia (intraperitoneal) in B6D2F1 (BDF1) mice
# Details: endpoint: median survival time, higher = longer survival
# Procedure, shortened: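 Transplantable tumour in mice; compound vs vehicle dosing; survival scored; ratio of treated to control reported.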
# [1] = dose: 50.0 mg/kg/injection, schedule: Q01DX009 (ip), vehicle: saline with Tween-80
# [2] = dose: 100.0 mg/kg/injection, schedule: Q01DX009 (ip), vehicle: saline with Tween-80
# [3] = dose: 200.0 mg/kg/injection, schedule: Q01DX009 (ip), vehicle: saline with Tween-80
# [4] = dose: 5.0 mg/kg/injection, schedule: Q01DX009 (ip), vehicle: Klucel (hydroxypropylcellulose) (HPC)
# [5] = dose: 10.0 mg/kg/injection, schedule: Q01DX009 (ip), vehicle: Klucel (hydroxypropylcellulose) (HPC)
# [6] = dose: 20.0 mg/kg/injection, schedule: Q01DX009 (ip), vehicle: Klucel (hydroxypropylcellulose) (HPC)
smiles,measurement,setting,value
CCCc1c(N)c2ccccc2c2ccccc12,T/C,"dose: 100.0 mg/kg/injection, schedule: Q04DX002 (ip), vehicle: saline with Tween-80",86 % of control
same,T/C,"dose: 200.0 mg/kg/injection, schedule: Q04DX002 (ip), vehicle: saline with Tween-80",96 % of control
same,T/C,"dose: 400.0 mg/kg/injection, schedule: Q04DX002 (ip), vehicle: saline with Tween-80",102 % of control
O=C(CN1CCCCC1)Nc1ccc(Br)cc1,T/C,[1],96 % of control
same,T/C,[2],104 % of control
same,T/C,[3],112 % of control
CCCCCC(O)C1C(=O)OC(C)C(O)/C=C/C=C/C=C/C=C\C=C(\C)C(O)CC(O)CC(O)CC(O)CC(O)CC(O)CC1O (centres undefined),T/C,"dose: 2.5 mg/kg/injection, schedule: Q01DX009 (ip), vehicle: saline",111 % of control
same,T/C,[4],95 % of control
same,T/C,[5],105 % of control
same,T/C,[6],90 % of control
Cc1cccc(N2CCNCC2)c1,T/C,"dose: 6.25 mg/kg/injection, schedule: Q04DX003 (ip), vehicle: saline sonified",95 % of control
same,T/C,"dose: 12.5 mg/kg/injection, schedule: Q04DX003 (ip), vehicle: saline sonified",100 % of control
same,T/C,"dose: 25.0 mg/kg/injection, schedule: Q04DX003 (ip), vehicle: saline sonified",109 % of control
CC(=O)CC(C)=O.CC(=O)CC(C)=O.c1cc[c]([Sn][c]2ccccc2)cc1,T/C,"dose: 100.0 mg/kg/injection, schedule: Q01DX001 (ip), vehicle: Klucel (hydroxypropylcellulose) (HPC)",160 % of control
same,T/C,"dose: 200.0 mg/kg/injection, schedule: Q01DX001 (ip), vehicle: Klucel (hydroxypropylcellulose) (HPC)",166 % of control
OC(CN1CCCCC1)c1cc(-c2ccccc2)no1 (centres undefined),T/C,"dose: 25.0 mg/kg/injection, schedule: Q01DX009 (ip), vehicle: saline",100 % of control
same,T/C,[1],100 % of control
same,T/C,"dose: 50.0 mg/kg/injection, schedule: Q01DX009 (ip), vehicle: saline",105 % of control
same,T/C,[2],100 % of control
same,T/C,"dose: 100.0 mg/kg/injection, schedule: Q01DX009 (ip), vehicle: saline",107 % of control
same,T/C,[3],105 % of control
same,T/C,"dose: 200.0 mg/kg/injection, schedule: Q01DX009 (ip), vehicle: saline",88 % of control
CCCOCNC(=O)c1cccnc1,T/C,"dose: 100.0 mg/kg/injection, schedule: Q01DX001 (ip), vehicle: saline",95 % of control
same,T/C,"dose: 200.0 mg/kg/injection, schedule: Q01DX001 (ip), vehicle: saline",100 % of control
same,T/C,"dose: 400.0 mg/kg/injection, schedule: Q01DX001 (ip), vehicle: saline",100 % of control
[N-]=[N+]=C1C(=O)NN=C1c1ccccc1,T/C,"dose: 25.0 mg/kg/injection, schedule: Q04DX003 (ip), vehicle: Klucel (hydroxypropylcellulose) (HPC)",104 % of control
same,T/C,"dose: 50.0 mg/kg/injection, schedule: Q04DX003 (ip), vehicle: Klucel (hydroxypropylcellulose) (HPC)",114 % of control
same,T/C,"dose: 100.0 mg/kg/injection, schedule: Q04DX003 (ip), vehicle: Klucel (hydroxypropylcellulose) (HPC)",95 % of control
CC(C)=CCOc1ccc(C(=O)/C=C/c2ccccc2)c(O)c1,T/C,"dose: 1.25 mg/kg/injection, schedule: Q01DX009 (ip), vehicle: Klucel (hydroxypropylcellulose) (HPC)",108 % of control
same,T/C,"dose: 2.5 mg/kg/injection, schedule: Q01DX009 (ip), vehicle: Klucel (hydroxypropylcellulose) (HPC)",101 % of control
same,T/C,[4],107 % of control
same,T/C,[5],91 % of control
same,T/C,[6],104 % of control
same,T/C,"dose: 40.0 mg/kg/injection, schedule: Q01DX009 (ip), vehicle: Klucel (hydroxypropylcellulose) (HPC)",89 % of control
CNC(=N)c1ccc(NC(=N)c2ccc(NC(=N)c3ccc(NC(=N)c4ccc(C(=N)NC)cc4)cc3)cc2)cc1,T/C,"dose: 6.0 mg/kg/injection, schedule: Q01DX009 (ip), vehicle: saline with Tween-80",120 % of control
same,T/C,"dose: 13.0 mg/kg/injection, schedule: Q01DX009 (ip), vehicle: saline with Tween-80",166 % of control and 175 % of control
same,T/C,"dose: 18.0 mg/kg/injection, schedule: Q04DX003 (ip), vehicle: saline with Tween-80",100 % of control
same,T/C,"dose: 20.0 mg/kg/injection, schedule: Q01DX009 (ip), vehicle: saline with Tween-80",157 % of control and 165 % of control
same,T/C,"dose: 20.0 mg/kg/injection, schedule: Q04DX003 (ip), vehicle: saline with Tween-80",109 % of control
same,T/C,"dose: 26.0 mg/kg/injection, schedule: Q04DX003 (ip), vehicle: saline with Tween-80",116 % of control
same,T/C,"dose: 30.0 mg/kg/injection, schedule: Q01DX009 (ip), vehicle: saline with Tween-80",214 % of control
same,T/C,"dose: 40.0 mg/kg/injection, schedule: Q04DX003 (ip), vehicle: saline with Tween-80",154 % of control
same,T/C,"dose: 80.0 mg/kg/injection, schedule: Q04DX003 (ip), vehicle: saline with Tween-80",90 % of control
CCCCN(CCCC)CCC(=O)c1ccc(OC)c2ccccc12,T/C,[1],86 % of control
